Test systems include CAKI-1; COLO 205; HCT-15; HOP-18; HT-29; IGROV-1; M14; M19-MEL; OVCAR-8; RXF 393; SK-MEL-5; SK-OV-3; SNB-78; TK-10; HOP-62; SF-268; SK-MEL-2; SR.
What all share (test): inhibition of tumour cell growth, NCI panel, 48 h

From ChEMBL document CHEMBL1201862, “PubChem BioAssay data set” (2004) come the findings set out here.

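These data come from cells grown in 96-well plates and exposed to compound for 48 hours at five concentrations. Abbreviation: GI50, concentration required for 50% inhibition of growth.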 Active and inactive are the calls of the source. Cut-off read from the data, not from the text of the source: active = GI50 up to about 1.1 µM and inactive = higher. Some results are limits rather than exact numbers.

For the compound `Cc1cc(O)cc2c1O[C@@]1(C)CCC3[C@@]4(C)CC[C@H](O)C(C)(C)C4CC[C@@]3(C)[C@H]1C2` (stereo not given in full), the GI50 in the test on CAKI-1 was 6.81 µM (inactive); in the test with COLO 205 it was 17.5 µM (inactive); with HCT-15, 3.03 µM; in the test on HOP-18, 14.7 µM (inactive); in the test with HT-29 it was 13.3 µM (inactive); in the test with IGROV-1 it was 13.5 µM (inactive). Further, the GI50 in the test on M14 was 11.3 µM (inactive); in the test on M19-MEL it was 11 µM (inactive); in the test with OVCAR-8, 8.45 µM (inactive); with RXF 393, 3.56 µM (inactive); in the test on SK-MEL-5, 5.61 µM (inactive); with SK-OV-3 it was 3.4 µM (inactive). Moreover, the GI50 was 5.98 µM (inactive) with SNB-78 and 12.5 µM (inactive) in the test on TK-10.

Take `CC(=O)Nc1ccc(-c2nnc(SCC(=O)Nc3cccc(Cl)c3)o2)cc1`: the GI50 with CAKI-1 is 19.1 µM (inactive); in the test on COLO 205 it was 16.6 µM (inactive); with HCT-15, 14.9 µM; in the test with HOP-18, 12.6 µM (inactive); with HOP-62, 19.7 µM (inactive); in the test with HT-29, 17.2 µM (inactive). The GI50 in the test with IGROV-1 is 8.97 µM (inactive); in the test with M14, 11.8 µM (inactive); in the test on M19-MEL it was 17.3 µM (inactive); in the test with OVCAR-8, 33.2 µM (inactive); with RXF 393, 17.4 µM (inactive); in the test on SF-268, 13.7 µM (inactive). The GI50 was 20 µM (inactive) in the test with SK-MEL-2; 13.9 µM (inactive) in the test with SK-MEL-5; 38 µM (inactive) with SK-OV-3; > 100 µM (inactive) in the test with SNB-78; 19.6 µM (inactive) in the test with TK-10.

Regarding `O=C1[C@@H]2C3C=CC([C@H]4C(=O)N(CO)C(=O)[C@@H]34)[C@@H]2C(=O)N1CO`, the GI50 with CAKI-1 is > 100 µM (inactive); in the test on COLO 205, > 49.9 µM (inactive); in the test with HCT-15 it was 25.4 µM; in the test with HOP-18, 34 µM (inactive); with HOP-62 it was > 100 µM (inactive); with HT-29 it was 62.8 µM (inactive). The GI50 in the test on IGROV-1 is > 100 µM (inactive); in the test on M14, > 50.7 µM (inactive); with M19-MEL, > 44.9 µM (inactive); with OVCAR-8, 35.6 µM (inactive); with RXF 393 it was > 55.1 µM (inactive); with SF-268, > 49.7 µM (inactive). Further, the GI50 with SK-MEL-2 is > 100 µM (inactive); in the test with SK-MEL-5 it was 59 µM (inactive); in the test with SK-OV-3 it was > 100 µM (inactive); with SNB-78, > 100 µM (inactive); in the test with TK-10 it was > 100 µM (inactive).

As to `COc1ccc(/C=C/c2cc(OC)c(OC)c(OC)c2)cc1OC`, the GI50 is > 83.6 µM (inactive) with CAKI-1; > 100 µM (inactive) with COLO 205; more than 56.2 µM with HCT-15; > 100 µM (inactive) in the test on HOP-18; 44 µM (inactive) with HOP-62; > 72.8 µM (inactive) in the test with HT-29. Moreover, the GI50 in the test with IGROV-1 is > 100 µM (inactive); with M14 it was > 100 µM (inactive); in the test with OVCAR-8, > 100 µM (inactive); with RXF 393 it was > 63 µM (inactive); in the test on SF-268, > 67.9 µM (inactive); with SK-MEL-2, > 100 µM (inactive). Further, the GI50 is > 74.5 µM (inactive) in the test with SK-MEL-5; > 100 µM (inactive) with SK-OV-3; 36.1 µM (inactive) with SNB-78; > 100 µM (inactive) with SR; > 100 µM (inactive) with TK-10.

As for `O=C1NC2C3CC(OCc4ccccc4)(OCc4ccccc4)C2OC3O1` (stereo not given), the GI50 in the test with CAKI-1 was > 50 µM (inactive); in the test with COLO 205, > 50 µM (inactive); in the test with HCT-15, more than 50 µM; in the test on HOP-18, > 50 µM (inactive); in the test with HOP-62 it was > 50 µM (inactive); in the test with HT-29, > 50 µM (inactive). In addition, the GI50 in the test with IGROV-1, in the test with M14, with M19-MEL, with SF-268, with SK-MEL-2 and in the test with SK-MEL-5 was > 50 µM (inactive) each time. Moreover, the GI50 with SK-OV-3 was > 50 µM (inactive); in the test with SNB-78, < 0.005 µM (active).

`CCOC(=O)c1[nH]c2c(OC)n[n+]([O-])cc2c1[N+](=O)[O-]`: the GI50 in the test with COLO 205 is 25.1 µM (inactive); in the test on HCT-15 it was 18.4 µM; in the test on HOP-18, 20.5 µM (inactive); in the test on HOP-62 it was 56.8 µM (inactive); with HT-29 it was 15.9 µM (inactive); in the test on IGROV-1, 54.8 µM (inactive). The GI50 with M14 was 19.9 µM (inactive); in the test with M19-MEL, 24.8 µM (inactive); with OVCAR-8, 19.9 µM (inactive); in the test on RXF 393, 15.8 µM (inactive); in the test on SF-268, 32 µM (inactive); in the test with SK-MEL-2, 19.8 µM (inactive). The results for the GI50 with SK-OV-3, in the test with SNB-78 and in the test on TK-10 were > 100 µM (inactive), 19.8 µM (inactive) and 16.4 µM (inactive), respectively.

Consider `Cc1c2c(cc[n+]1C)O[B-](c1ccccc1)(c1ccccc1)O2`, for which the GI50 in the test with CAKI-1 was 13.5 µM (inactive); in the test on COLO 205, 32.6 µM (inactive); in the test with HCT-15, 38.3 µM; in the test on HOP-18, 58.6 µM (inactive); in the test with HOP-62, > 100 µM (inactive); in the test with HT-29, > 100 µM (inactive). In addition, the GI50 in the test with IGROV-1 is 90.6 µM (inactive); with M14, 41.5 µM (inactive); with M19-MEL, 49.1 µM (inactive); with OVCAR-8 it was 67.3 µM (inactive); with RXF 393, 52.1 µM (inactive); in the test with SF-268 it was > 100 µM (inactive). The GI50 in the test with SK-MEL-2 was 91.2 µM (inactive); with SK-MEL-5, 83.4 µM (inactive); in the test on SK-OV-3, 94 µM (inactive); with SNB-78 it was 88.3 µM (inactive); with TK-10, 55.2 µM (inactive).

Regarding `Clc1ccc(SCCCCCCCCCCSc2ccc(Cl)cc2)cc1`, the GI50 in the test on CAKI-1 was > 100 µM (inactive); in the test with COLO 205 it was > 100 µM (inactive); with HCT-15, more than 54.2 µM; in the test on HOP-18 it was > 100 µM (inactive); with HOP-62, > 76.2 µM (inactive); in the test on HT-29, > 100 µM (inactive). The GI50 with IGROV-1 was > 100 µM (inactive); with M14, > 100 µM (inactive); with M19-MEL, > 100 µM (inactive); with OVCAR-8 it was > 61 µM (inactive); in the test on RXF 393, > 100 µM (inactive); with SF-268 it was > 100 µM (inactive). In addition, the GI50 was > 56.1 µM (inactive) in the test with SK-MEL-2; > 55.1 µM (inactive) with SK-MEL-5; > 100 µM (inactive) in the test with SK-OV-3; > 100 µM (inactive) with SNB-78; > 61.9 µM (inactive) with TK-10.

In the case of `C[C@H]1C(=O)CC[C@]2(C)CCC(C(C)(C)O)CC12O` (stereo not given in full), the GI50 was > 100 µM (inactive) in the test on CAKI-1; > 100 µM (inactive) in the test on COLO 205; more than 100 µM in the test with HCT-15; > 100 µM (inactive) in the test on HOP-18; > 100 µM (inactive) with HOP-62; > 100 µM (inactive) with HT-29. Moreover, the GI50 in the test with IGROV-1, in the test on M14, in the test on OVCAR-8, with RXF 393, with SF-268 and in the test on SK-MEL-2 was > 100 µM (inactive) each time. In addition, the GI50 in the test with SK-MEL-5, in the test with SK-OV-3, in the test with SNB-78, in the test with SR and in the test on TK-10 was > 100 µM (inactive) throughout.
